Test system: epileptic patients
Experiment: Clinical trial: seizure frequency in epileptic patients on valproate with added L-carnitine
Type: in vivo
Details: 45 patients treated only with valproate for at least six months, then valproate and L-carnitine for at least one year; compared with the pre-treatment period (valproate only). Pre-carnitine vs greater than 12 months p<0.001; start-6 months vs greater than 12 months p=0.0001; 6-12 months vs greater than 12 months p=0.0001
Experimental: Fortyfive patients, 20 females and 25 males, mean age 24.5±8.48 years, were included in the study.
Some patients had more than one seizure type.
All of the patients had been treated only with valproate for at least six months.
Subsequently, they were treated with both valproate and L-carnitine for at least one year.
At intervals L-carnitine activity was assessed on some parameters including seizure frequency, in comparison with the pre-treatment period (valproate only, no L-carnitine). The intervals selected for all the controls were: between the start to 6 months of L-carnitine therapy, […], and L-carnitine therapy greater than 12 months.
Parameter assessment was not carried out at prefixed dates but within the 0-6, 6-12 and greater than 12 month periods in order to evaluate the seizure frequency over a sufficiently extended time period.

C[N+](C)(C)C[C@H](O)CC(=O)[O-] [L-carnitine]
seizure frequency: decreased progressively and steadily
